Where a name gives a salt, the structure may show the parent alone.
What follows are molecules tested on Acinetobacter baumannii ATCC 17978 (assay: Antimicrobial susceptibility testing: 90% growth inhibitory concentration (IC90) determination). Conditions: 90% growth inhibitory concentration; Acinetobacter baumannii ATCC17978; Iso-Sensitest broth, OD 600 nm over 16h; read-out: ATCC17978 IC90.
Format: cell-based
Method: Antimicrobial Susceptibility Testing:
90% Growth Inhibitory Concentration (IC90) Determination
The in vitro antimicrobial activity of the compounds was determined according to the following procedure:
The assay used a 10-points Iso-Sensitest broth medium to measure quantitatively the in vitro activity of the compounds against Acinetobacter baumannii ATCC 17978 and Acinetobacter baumannii ATCC 17961.
Stock compounds in DMSO were serially twofold diluted (e.g. range from 50 to 0.097 μM final concentration) in 384 wells microtiter plates and inoculated with 49 μl the bacterial suspension in Iso-Sensitest medium to have a final cell concentration of ˜5×10^(5) CFU/ml in a final volume/well of 50 ul/well. Microtiter plates were incubated at 35±2° C.
Bacterial cell growth was determined with the measurement of optical density at λ=600 nm each 20 minutes over a time course of 16h. Growth inhibition was calculated during the logarithmic growth of the bacterial cells with determination of the concentration inhibiting 50% (IC50) and 90% (IC90) of the growth.
Table 1 provides the 90% growth inhibitory concentrations (IC90) in micromoles per liter of the compounds of present invention obtained against the strain Acinetobacter baumannii ATCC17978 and Acinetobacter baumannii ATCC17961.

Compound	IC90 [µM]
CCc1cc(Nc2nccn3c(-c4ccc(OC)c(F)c4F)cnc23)ccc1C(=O)NCCCN [Example 118, N-(3-aminopropyl)-4-((3-(2,3-difluoro-4-methoxyphenyl)imidazo[1,2-a]pyrazin-8-yl)amino)-2-ethylbenzamide dihydrochloride]	0.45
CCc1cc(Nc2nccn3c(-c4ccc(Oc5ccc(OCCCN)cn5)c(F)c4F)cnc23)ccc1C(=O)NC [Example 511, 4-[[3-[4-[[5-(3-aminopropoxy)-2-pyridyl]oxy]-2,3-difluoro-phenyl]imidazo[1,2-a]pyrazin-8-yl]amino]-2-ethyl-N-methyl-benzamide; formic acid]	0.48

Same assay, conditions: Acinetobacter baumannii, ATCC17978, 16 h, 90% growth inhibitory concentration; Acinetobacter baumannii ATCC17978; Iso-Sensitest broth, OD 600 nm over 16h; read-out: ATCC17978 IC90

IC90 [µM]	Compound
0.72	CCc1cc(Nc2nccn3c(-c4ccc(Oc5ccccn5)c(F)c4F)cnc23)ccc1C(=O)NCCNC(=O)[C@@H](N)CCNC(=N)N [Example 420, N-[2-[[(2S)-2-amino-4-guanidino-butanoyl]amino]ethyl]-4-[[3-[2,3-difluoro-4-(2-pyridyloxy)phenyl]imidazo [1,2-a]pyrazin-8-yl]amino]-2-ethyl-benzamide; formic acid]
4.3	Cc1cc(Nc2nccn3c(-c4ccc(OC(F)F)cc4)cnc23)ccc1C(=O)N(C)CCN(C)C [Example 50, 4-((3-(4-(difluoromethoxy)phenyl)imidazo[1,2-a]pyrazin-8-yl)amino)-N-(2-(dimethylamino)ethyl)-N,2-dimethylbenzamide]
0.11	CCc1cc(Nc2nccn3c(-c4ccc(OCC#N)c(F)c4Cl)cnc23)ccc1C(=O)NCCNC(=O)[C@@H](N)CCCNC(=N)N [Example 330, N-[2-[[(2S)-2-amino-5-carbamimidamidopentanoyl]amino]ethyl]-4-[[3-[2-chloro-4-(cyanomethoxy)-3-fluorophenyl]imidazo[1,2-a]pyrazin-8-yl]amino]-2-ethylbenzamide;formic acid]
0.26	CNC(=O)c1ccc(Nc2nccn3c(-c4ccc(OC(F)F)cc4)cnc23)cc1I [Example 91, 4-((3-(4-(difluoromethoxy)phenyl)imidazo[1,2-a]pyrazin-8-yl)amino)-2-iodo-N-methylbenzamide]
0.31	C#CCOc1ccc(-c2cnc3c(Nc4ccc(C(=O)NCCCN)c(CC)c4)nccn23)c(F)c1F [Example 394, N-(3-aminopropyl)-4-[[3-(2,3-difluoro-4-prop-2-ynoxy-phenyl)imidazo[1,2-a]pyrazin-8-yl]amino]-2-ethyl-benzamide; formic acid]
2.5	COc1ccc(-c2cnc3c(Nc4ccc(C(=O)NCCCNC(=O)CC[C@H](N)C(=O)O)c(C)c4)nccn23)c(F)c1F [Example 355, (2S)-2-amino-5-[3-[[4-[[3-(2,3-difluoro-4-methoxyphenyl)imidazo[1,2-a]pyrazin-8-yl]amino]-2-methylbenzoyl]amino]propyl-amino]-5-oxopentanoic acid]
0.07	CCc1cc(Nc2nccn3c(-c4ccc(OC(F)F)c(F)c4F)cnc23)ccc1C(=O)NCCCCCN [Example 96, N-(5-aminopentyl)-4-((3-(4-(difluoromethoxy)-2,3-difluorophenyl)imidazo [1,2-a]pyrazin-8-yl)amino)-2-ethylbenzamide hydrochloride]
0.54	Cc1cc(Nc2nccn3c(-c4ccc(Cl)cc4)cnc23)ccc1C(=O)NCCCCN [Example 239, N-(4-aminobutyl)-4-[[3-(4-chlorophenyl)imidazo[1,2-a]pyrazin-8-yl]amino]-2-methylbenzamide; hydrochlo-ride]
0.16	CCc1cc(Nc2nccn3c(-c4ccc(OCC#N)c(F)c4F)cnc23)ccc1C(=O)NCCNC(=O)[C@@H](N)CCCCN [Example 143, 4-[[3-[4-(cyanomethoxy)-2,3-difluoro-phenyl]imidazo[1,2-a]pyrazin-8-yl]amino]-N-[2-[[(2S)-2,6-diaminohexanoyl]amino]ethyl]-2-ethyl-benzamide formate]
0.085	CCc1cc(Nc2nccn3c(-c4ccc(OC)c(F)c4F)cnc23)ccc1C(=O)NCCCCCCn1ccnc1 [Example 535, N-(6-(1H-imidazol-1-yl)hexyl)-4-((3-(2,3-difluoro-4-methoxyphenyl)imidazo[1,2-a]pyrazin-8-yl)amino)-2-ethylbenzamide]

Source: US20230012368A1 (Hoffmann-La Roche Inc., priority 2018, published 2023)
